Experimental data from patent publication US10576059B2, “Substituted phenylpyrrolecarboxamides with therapeutic activity in HIV” (New York Blood Center, Inc., priority 2014, dated 2020).

test system: HIV-1 pseudovirus pseudotyped with HXB2 Env; test: microbe, parasite or virus in culture; format: cell-based; conditions: Human immunodeficiency virus 1, HXB2, TZM-bl, TZM-bl cells, HIV-1 pseudovirus with HXB2 Env

SMILES | IC50
Cc1nc(C(NC(=O)c2ccc(-c3ccc(Cl)c(F)c3)[nH]2)C2CCCCN2)sc1CO (single isomer, unassigned) [Compound 20] | 3 ± 0.4 µM
Cc1ccc(-c2ccc(C(=O)NC(c3nc(C)c(CO)s3)C3CCCCN3)[nH]2)cc1F (single isomer, unassigned) [Compound 22] | 2.7 ± 0.2 µM
Cc1ccc(-c2ccc(C(=O)NC(c3nc(C)c(CCO)s3)C3CCCCN3)[nH]2)cc1F (single isomer, unassigned) [Compound 24] | 10.6 ± 0.1 µM
Cc1nc(C(NC(=O)c2ccc(-c3ccc(Cl)c(F)c3)[nH]2)C2CCCCN2)sc1CCO (single isomer, unassigned) [Compound 26] | 7.5 ± 0.2 µM
Cc1nc(C(NC(=O)c2ccc(-c3ccc(Cl)cc3)[nH]2)C2CCCCN2)sc1CCO (single isomer, unassigned) [Compound 28] | 8.9 ± 0.2 µM
Cc1ccc(-c2ccc(C(=O)NC(c3nc(C)c(CCCO)s3)C3CCCCN3)[nH]2)cc1F (single isomer, unassigned) [Compound 30] | 11.2 ± 0.7 µM
Cc1nc(C(NC(=O)c2ccc(-c3ccc(Cl)c(F)c3)[nH]2)C2CCCCN2)sc1CCCO (single isomer, unassigned) [Compound 31] | 5.1 ± 0.7 µM
Cc1nc(C(NC(=O)c2ccc(-c3ccc(Cl)cc3)[nH]2)C2CCCCN2)[nH]c1CO (single isomer, unassigned) [Compound 33] | 14 ± 0.1 µM
Cc1nc(C(NC(=O)c2ccc(-c3ccc(Cl)c(F)c3)[nH]2)C2CCCCN2)[nH]c1CO (single isomer, unassigned) [Compound 35] | 9 ± 0.2 µM
Cc1ccc(-c2ccc(C(=O)NC(CN)c3nc(C)c(CO)s3)[nH]2)cc1F (single isomer, unassigned) [Compound 43] | 1.7 ± 0.4 µM
Cc1nc(C(CNC(=N)N)NC(=O)c2ccc(-c3ccc(Cl)cc3)[nH]2)sc1CO (single isomer, unassigned) [Compound 45] | > 37 µM
Cc1nc(C(CNC(=N)N)NC(=O)c2ccc(-c3ccc(Cl)c(F)c3)[nH]2)sc1CO (single isomer, unassigned) [Compound 48] | > 27 µM
Cc1ccc(-c2ccc(C(=O)NC(CNC(=N)N)c3nc(C)c(CO)s3)[nH]2)cc1F (single isomer, unassigned) [Compound 49] | > 28 µM
Cc1nc(C(CN)NC(=O)c2ccc(-c3ccc(Cl)c(F)c3)[nH]2)sc1CO (single isomer, unassigned) [Compound 51] | 1.4 ± 0.5 µM
O=C(NC(c1ccccc1)c1ccc[nH]1)c1ccc(-c2ccc(Cl)cc2)[nH]1 (stereo not drawn) [Compound 1] | 16.4 ± 1.5 µM
Nc1nc(CNC(=O)c2ccc(-c3ccc(Cl)cc3)[nH]2)n[nH]1 [Compound 2] | > 63 µM
N=C(N)Nc1ccc(CC(NC(=O)c2ccc(-c3ccc(Cl)cc3)[nH]2)C(=O)N2CCOCC2)cc1 (stereo not drawn) [Compound 3] | > 36 µM
N=C(N)NCCCC(NC(=O)c1ccc(-c2ccc(Cl)cc2)[nH]1)C(=O)NCCO (stereo not drawn) [Compound 4] | > 44 µM
N=C(N)NCCCC(NC(=O)c1ccc(-c2ccccc2)[nH]1)C(=O)NCCO (stereo not drawn) [Compound 5] | > 47 µM
CS(=O)(=O)NCCNC(=O)C(CCCNC(=N)N)NC(=O)c1ccc(-c2ccc(Cl)cc2)[nH]1 (stereo not drawn) [Compound 6] | > 37 µM
CS(=O)(=O)NCCNC(=O)C(CCCNC(=N)N)NC(=O)c1ccc(-c2ccccc2)[nH]1 (stereo not drawn) [Compound 7] | > 43 µM
CN1CCN(NC(=O)C(CCCNC(=N)N)NC(=O)c2ccc(-c3ccc(Cl)cc3)[nH]2)CC1 (stereo not drawn) [Compound 8] | > 42 µM

SMILES | IC50
N=C(N)NCCCC(NC(=O)c1ccc(-c2ccc(Cl)cc2)[nH]1)C(=O)NN1CCOCC1 (stereo not drawn) [Compound 9] | > 40 µM
N=C(N)NCCCC(NC(=O)c1ccc(-c2ccccc2)[nH]1)C(=O)NN1CCOCC1 (stereo not drawn) [Compound 10] | > 43 µM
Cc1n[nH]c(C)c1CNC(=O)c1ccc(-c2ccc(Cl)cc2)[nH]1 [Compound 11] | ~60 µM
Cc1nccn1Cc1ccc(CNC(=O)c2ccc(-c3ccc(Cl)cc3)[nH]2)o1 [Compound 12] | 14.1 ± 1.3 µM
CCN(CC)Cc1ccc(OC)c(CNC(=O)c2ccc(-c3ccc(Cl)cc3)[nH]2)c1 [Compound 13] | 4.3 ± 0.1 µM
NS(=O)(=O)c1ccc(CCNC(=O)c2ccc(-c3ccc(Cl)cc3)[nH]2)cc1 [Compound 14] | > 50 µM
Cc1nc(C(NC(=O)c2ccc(-c3ccc(Cl)cc3)[nH]2)C2CCCCN2)sc1CCCO (stereo not drawn) [Compound 32] | 7.6 ± 0.8 µM
CNc1cc(NC(=O)c2ccc(-c3ccc(F)c(Cl)c3)[nH]2)nc(NC(=N)N)n1 [Compound 53] | > 36 µM
Cc1nc(C(CN)NC(=O)c2cc3cc(Cl)ccc3[nH]2)sc1CO (stereo not drawn) [Compound 60] | > 40 µM
Cc1nc(C(CN)NC(=O)c2cc3ccccc3[nH]2)sc1CO (stereo not drawn) [Compound 62] | > 60 µM
CC(=O)NCC(NC(=O)c1ccc(-c2ccc(Cl)c(F)c2)[nH]1)c1nc(C)c(CO)s1 (stereo not drawn) [Compound 64] | ~40 µM
Cc1nc(C(CN(C)C)NC(=O)c2ccc(-c3ccc(Cl)cc3)[nH]2)sc1CO (stereo not drawn) [Compound 66] | 16.5 ± 3.4 µM
CC(=O)NCC(NC(=O)c1ccc(-c2ccc(Cl)c(F)c2)[nH]1)c1nc(C)c(COC(C)=O)s1 (stereo not drawn) [Compound 70] | > 40 µM
Cc1nc(C(CN(C)C)NC(=O)c2ccc(-c3ccc(Cl)c(F)c3)[nH]2)sc1CO (stereo not drawn) [Compound 71] | 3.6 ± 1 µM
Cc1cc(-c2ccc(Cl)cc2)[nH]c1C(=O)NC(CN)c1nc(C)c(CO)s1 (stereo not drawn) [Compound 73] | 2.2 ± 0.8 µM
Cc1ccc(-c2ccc(C(=O)NC(CCN(C)C)c3nc(C)c(CO)s3)[nH]2)cc1F (stereo not drawn) [Compound 76] | 11 ± 2.5 µM
Cc1nc(C(CCN(C)C)NC(=O)c2ccc(-c3ccc(Cl)cc3)[nH]2)sc1CO (stereo not drawn) [Compound 80] | 14.2 ± 0.7 µM
Cc1nc(C(CCN)NC(=O)c2ccc(-c3ccc(Cl)c(F)c3)[nH]2)sc1CO (stereo not drawn) [Compound 90] | 4.1 ± 1.5 µM
NCC(NC(=O)c1ccc(-c2ccc(Cl)c(F)c2)[nH]1)c1ncc(CO)s1 (stereo not drawn) [Compound 94] | 1.1 ± 0.8 µM
Cc1nc(C(CN)NC(=O)c2cnc(-c3ccc(Cl)cc3)[nH]2)sc1CO (stereo not drawn) [Compound 97] | > 51 µM
Cc1nc(C(CN)NC(=O)c2ncc(-c3ccc(Cl)cc3)[nH]2)sc1CO (stereo not drawn) [Compound 99] | 34.9 ± 3 µM
Cc1cc(C(=O)NC(CN)c2nc(C)c(CO)s2)[nH]c1-c1ccc(Cl)cc1 (stereo not drawn) [Compound 101] | 3.6 ± 0.4 µM

same assay, conditions: TZM-bl cells, HIV-1 pseudovirus with HXB2 Env

SMILES | IC50
Cc1nc(C(CN)NC(=O)c2cc3cc(Cl)ccc3[nH]2)sc1CO (stereo not drawn) [Compound 61] | ~50 µM
Cc1nc(C(CN)NC(=O)c2cc3ccccc3[nH]2)sc1CO (stereo not drawn) [Compound 63] | > 60 µM
CC(=O)NCC(NC(=O)c1ccc(-c2ccc(Cl)c(F)c2)[nH]1)c1nc(C)c(CO)s1 (stereo not drawn) [Compound 65] | ~40 µM
Cc1nc(C(CN)NC(=O)c2cnc(-c3ccc(Cl)cc3)[nH]2)sc1CO (stereo not drawn) [Compound 98] | > 51 µM

test system: not listed separately; test: Cytotoxicity in TZM-bl cells (XTT); format: cell-based; conditions: human
Method: (§1) The cytotoxicity of test compounds in TZM-bl cells was also measured by the XTT method described previously^7. […] The soluble intracellular formazan was quantitated colorimetrically at 450 nm 4 h later. The percent of cytotoxicity and the CC50 values were calculated as above. (See Table 4)

SMILES | CC50 at 3 days
Cc1nc(C(CN)NC(=O)c2cc3cc(Cl)ccc3[nH]2)sc1CO (stereo not drawn) [Compound 60] | ~47 µM
Cc1nc(C(CN)NC(=O)c2cc3ccccc3[nH]2)sc1CO (stereo not drawn) [Compound 62] | > 60 µM

test system: TZM-bl cells; test: Cytotoxicity in TZM-bl cells (XTT); format: cell-based; conditions: 3 days
Method: as §1

SMILES | CC50
Cc1nc(C(CN)NC(=O)c2cc3cc(Cl)ccc3[nH]2)sc1CO (stereo not drawn) [Compound 61] | > 55 µM
Cc1nc(C(CN)NC(=O)c2cc3ccccc3[nH]2)sc1CO (stereo not drawn) [Compound 63] | > 60 µM

test system: panel of HIV-1 ENV-pseudoviruses (subtype A, A/D, A2/D, A/E, A/G, B, C and D); test: microbe, parasite or virus in culture; format: cell-based; conditions: Human immunodeficiency virus 1, TZM-bl, read-out: IC50 (μM) ± S.D., subtype B, ENV B41

SMILES | IC50
Cc1nc(C(CN)NC(=O)c2ccc(-c3ccc(Cl)cc3)[nH]2)sc1CO (single isomer, unassigned) [Compound 40] | 0.28 ± 0.03 µM

same assay, conditions: Human immunodeficiency virus 1, TZM-bl, read-out: IC50 (μM) ± S.D., subtype B, NIH # 11024, ENV AC10.0, clone 29

SMILES | IC50
Cc1nc(C(CN)NC(=O)c2ccc(-c3ccc(Cl)cc3)[nH]2)sc1CO (single isomer, unassigned) [Compound 40] | 0.29 ± 0.03 µM

same assay, conditions: Human immunodeficiency virus 1, TZM-bl, read-out: IC50 (μM) ± S.D., subtype B, NIH # 11578, ENV pWEAUd15.410.5017

SMILES | IC50
Cc1nc(C(CN)NC(=O)c2ccc(-c3ccc(Cl)cc3)[nH]2)sc1CO (single isomer, unassigned) [Compound 40] | 0.28 ± 0.04 µM

same assay, conditions: subtype A, ENV BG505-T332N; read-out: IC50 (μM) ± S.D.

SMILES | IC50
Cc1nc(C(CN)NC(=O)c2ccc(-c3ccc(Cl)cc3)[nH]2)sc1CO (single isomer, unassigned) [Compound 40] | 0.33 ± 0.04 µM

test system: PBMC; test: Cytotoxicity in PBMC (XTT); format: cell-based; conditions: 7 days
Method: For the PBMC toxicity assay we used 5×10^5 cells/ml and the cytotoxicity of the compounds was measured after 7 days of incubation as previously reported^8. Following the addition of XTT the soluble intracellular formazan was quantitated colorimetrically at 450 nm 4 h later. The percent of cytotoxicity and the CC50 values were calculated as above. (See Table 4)

SMILES | CC50
Cc1nc(C(NC(=O)C(=O)Nc2ccc(Cl)cc2)C2CCCCN2)sc1CO (stereo not drawn) [NBD-09027] | > 160 µM
